EP0306845A2, “Medicinal preparation containing certain derivatives of 6-mercaptopurine, use of these derivatives of 6-mercaptopurine, process for the preparation of the medicinal preparation and some derivatives of 6-mercaptopurine and process for their preparation” (HOECHST AKTIENGESELLSCHAFT, priority 1987, dated 1989)

Tested on: Friend-Leukämie-Virus
Assay: In vivo test in mice infected with Friend leukaemia virus (retrovirus model; spleen weight)
Parameters: species or system Maus
Details: for Wirkung im Vergleich zu Suramin: summary in words of the two experiments of the table
From the text: Da für die HIV-Infektion des Menschen kein geeignetes Infektionsmodell bei Labortieren existiert, muß bei der Prüfung von Chemotherapeutika auf Infektionen mit anderen Retroviren zurückgegriffen werden. Sowie die Hemmung der Virusreplikation in vivo aufgrund einer spezifischen Blockierung der RT (= Reverse Transkriptase)-Aktivität untersucht wird, erscheint die Wahl eines solchen Ersatzmodelles gerechtfertigt. Im vorliegenden Fall wurde die Infektion der Maus mit dem Friend-Leukämie-Virus gewählt.
Dazu wurden normale Labormäuse (NMRI = Naval Medical Research Institute) durch intravenöse Injektion mit Friend-Virus enthaltendem Mäuseserum infiziert. Bei den unbehandelten Kontrolltieren entwickelte sich als Symptom der Infektion innerhalb von zwei Wochen eine deutliche Vergrößerung von Milz und Leber. Die Behandlung erfolgte über 10 Tage, beginnend 48 Stunden nach der Infektion. Am 14. Versuchstag wurden die tiere durch Luxation der Halswirbel getötet und geöffnet. Die Milz wurde entnommen und gewogen. Als Meßparameter der therapeutischen Wirksamkeit wurde das Milzgewicht der behandelten Tiere mit dem der unbehandelten Infektionskontrolle in Relation gesetzt.
Während bei uninfizierten ausgewachsenen Labormäusen (20 - 24 g Körpergewicht) die Milz weniger als 1 % des Körpergewichtes wog, erreichte bei infizierten Tieren die Milz am Ende des Versuchs bis zu etwa 10 % des Körpergewichtes. […] Suramin ist die Verbindung der Formel: [drawing 14]

Molecule	Wirkung im Vergleich zu Suramin	also measured
6-Mercapto-9-[(1-hydroxy-3-isopropoxy-2-propoxy)methyl]-purin [Beispiel 3]	mit Suramin vergleichbar	–
6-Mercapto-9-[1,3-bis-(isopropoxy)-propyl-2-oxymethyl]-purin [Beispiel 2]	gegenüber dem Suramin Vorteile besitzen	–
Cc1ccc(C(=O)Nc2ccc(S(=O)(=O)O)c3cc(S(=O)(=O)O)cc(S(=O)(=O)O)c23)cc1NC(=O)c1cccc(NC(=O)Nc2cccc(C(=O)Nc3cc(C(=O)Nc4ccc(S(=O)(=O)O)c5cc(S(=O)(=O)O)cc(S(=O)(=O)O)c45)ccc3C)c2)c1 [Suramin, reference compound]	–	Milzwachstum (infected mice, treatment with the comparison preparation, mostly statistically significant (P 0,05)): Verringerung des Milzwachstums
Nc1nc(S)c2ncn([C@@H]3O[C@H](CO)[C@@H](O)[C@H]3O)c2n1 [(2), 2-Amino-6-mercaptopurin-9-D-ribosid]	–	Relat Milzgewicht in % vom Körpergewicht (Versuch 1 (Virus-Verdünnung 1:5000), NMRI mice, 10 x 1,0 mg/Maus i.p., spleen weighed on day 14): 0,5 % vom Körpergewicht
OC[C@H]1O[C@@H](n2cnc3c(S)ncnc32)[C@H](O)[C@@H]1O [(1), 6-Mercapto-purin-9-D-ribosid]	gegenüber dem Suramin Vorteile besitzen	–
